# From patent US20240336611A1 (Insilico Medicine IP Limited, priority 2021, published 2024)
# How the values were obtained:
# [1] = Metabolic stability in human liver microsomes; format: in vitro ADME; conditions: LM Clint (intrinsic clearance); 1 μM test compound, 0.5 mg protein/mL microsome, 37° C., up to 60 min
# [2] = target: T1, TNIK kinase [amino acid sequence (1-367), Invitrogen] (Homo sapiens, UniProt Q9UKE5); assay: TNIK kinase inhibition assay (Z-lyte FRET-peptide); format: biochemical; conditions: 0.625 nM TNIK kinase, 2 μM Ser/Thr 7 peptide, 64 μM ATP, one hour at room temperature
# T1 construct: purchased Invitrogen
# T1 sequence (Q9UKE5 1-367): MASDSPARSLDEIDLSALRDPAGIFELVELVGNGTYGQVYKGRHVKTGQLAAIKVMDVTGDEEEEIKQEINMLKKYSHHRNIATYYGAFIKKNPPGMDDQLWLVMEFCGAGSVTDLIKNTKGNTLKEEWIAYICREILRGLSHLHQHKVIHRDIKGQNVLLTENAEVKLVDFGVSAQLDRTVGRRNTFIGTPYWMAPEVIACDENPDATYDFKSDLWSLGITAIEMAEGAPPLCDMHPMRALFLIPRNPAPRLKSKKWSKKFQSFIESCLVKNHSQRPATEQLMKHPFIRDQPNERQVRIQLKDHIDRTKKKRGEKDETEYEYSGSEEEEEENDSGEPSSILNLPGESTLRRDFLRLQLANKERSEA
SMILES,Human Liver Microsome (μM/min/mg) [1],IC50 [2] [nM]
"CC(C)c1noc(-c2ccc(F)cc2)c1-c1nc(C(=O)Nc2ccc(N3CC4CC(C3)N4C)cn2)cs1 [Compound 95, 2-(5-(4-fluorophenyl)-3-isopropylisoxazol-4-yl)-N-(5-(6-methyl-3,6-diazabicyclo[3.1.1]heptan-3-yl)pyridin-2-yl)thiazole-4-carboxamide]",++ (10-100 μM/min/mg as ++),1 to 12
"CC(C)c1onc(-c2ccc(F)cc2)c1-c1nc(C(=O)Nc2ccc(N3CC4CC(C3)N4C)cn2)cs1 [Compound 96, 2-(3-(4-fluorophenyl)-5-isopropylisoxazol-4-yl)-N-(5-(6-methyl-3,6 diazabicyclo[3.1.1]heptan-3-yl)pyridin-2-yl)thiazole-4-carboxamide]",++ (10-100 μM/min/mg as ++),1 to 12
"CC(C)c1noc(-c2ccc(F)cc2)c1-c1nc(C(=O)Nc2ccc(N3CC4CC(C3)N4C)cc2F)cs1 [Compound 97, N-(2-fluoro-4-(6-methyl-3,6-diazabicyclo[3.1.1]heptan-3-yl)phenyl)-2-(5-(4-fluorophenyl)-3-isopropylisoxazol-4-yl)thiazole-4-carboxamide]",++ (10-100 μM/min/mg as ++),1 to 12
"CC(C)c1onc(-c2ccc(F)cc2)c1-c1nc(C(=O)Nc2ccc(N3CC4CC(C3)N4C)cc2F)cs1 [Compound 98, N-(2-fluoro-4-(6-methyl-3,6-diazabicyclo[3.1.1]heptan-3-yl)phenyl)-2-(3-(4-fluorophenyl)-5-isopropylisoxazol-4-yl)thiazole-4-carboxamide]",++ (10-100 μM/min/mg as ++),1 to 12
"CC(C)n1cnc(-c2ccc(F)cc2)c1-c1nc(C(=O)Nc2ccc(N3CCOCC3)cn2)cs1 [Compound 99, 2-(4-(4-fluorophenyl)-1-isopropyl-1H-imidazol-5-yl)-N-(5-morpholinopyridin-2-yl)thiazole-4-carboxamide]",++ (10-100 μM/min/mg as ++),1 to 12
"CC(C)n1cnc(-c2ccc(F)cc2)c1-c1nc(C(=O)Nc2ccc(N3CCOCC3)cc2F)cs1 [Compound 100, N-(2-fluoro-4-morpholinophenyl)-2-(4-(4-fluorophenyl)-1-isopropyl-1H-imidazol-5-yl) thiazole-4-carboxamide]",++ (10-100 μM/min/mg as ++),1 to 12
"[2H]C([2H])([2H])N1CC(c2ccc(NC(=O)c3csc(-c4c(-c5ccc(F)cc5)ncn4C(C)C)n3)nc2)C1 [Compound 108, 2-[5-(4-fluorophenyl)-3-isopropyl-imidazol-4-yl]-N-[5-[1-(trideuteriomethyl)azetidin-3-yl]-2-pyridyl]thiazole-4-carboxamide]",++ (10-100 μM/min/mg as ++),1 to 12
"COCCN1CC(c2ccc(NC(=O)c3csc(-c4c(-c5ccc(F)cc5)ncn4C(C)C)n3)nc2)C1 [Compound 109, 2-(4-(4-fluorophenyl)-1-isopropyl-1H-imidazol-5-yl)-N-(5-(1-(2-methoxyethyl)azetidin-3-yl)pyridin-2-yl)thiazole-4-carboxamide]",++ (10-100 μM/min/mg as ++),1 to 12
"[2H]C([2H])([2H])N1CC(c2ccc(NC(=O)c3csc(-c4c(-c5ccc(F)cc5)noc4C(C)C)n3)nc2)C1 [Compound 115, 2-[3-(4-fluorophenyl)-5-isopropyl-isoxazol-4-yl]-N-[5-[1-(trideuteriomethyl)azetidin-3-yl]-2-pyridyl]thiazole-4-carboxamide]",++ (10-100 μM/min/mg as ++),1 to 12
"[2H]C([2H])([2H])N1CC(c2ccc(NC(=O)c3nc(-c4c(-c5ccc(F)cc5)ncn4C4CCC4)cs3)nc2)C1 [Compound 121, 4-(1-cyclobutyl-4-(4-fluorophenyl)-1H-imidazol-5-yl)-N-(5-(1-(trideuteriomethyl)azetidin-3-yl)pyridin-2-yl)thiazole-2-carboxamide]",++ (10-100 μM/min/mg as ++),1 to 12
"[2H]C([2H])([2H])N1CCN(c2ccc(NC(=O)c3c[nH]c(-c4c(-c5ccc(F)cc5)ncn4C([2H])(C)C)n3)c(F)c2)CC1 [Compound 127, 2-[3-(1-deuterio-1-methyl-ethyl)-5-(4-fluorophenyl)imidazol-4-yl]-N-[2-fluoro-4-[4-(trideuteriomethyl)piperazin-1-yl]phenyl]-1H-imidazole-4-carboxamide]",++ (10-100 μM/min/mg as ++),1 to 12

# Results, then the compound that gave them:
Human Liver Microsome (μM/min/mg) [1],IC50 [2] [nM],SMILES
++ (10-100 μM/min/mg as ++),12 to 150,"CC(C)n1cnc(-c2ccc(F)cc2)c1-c1nc(C(=O)Nc2ccc(C3CN(C)C3)cn2)co1 [Compound 102, 2-(4-(4-fluorophenyl)-1-isopropyl-1H-imidazol-5-yl)-N-(5-(1-methylazetidin-3-yl)pyridin-2-yl)oxazole-4-carboxamide]"
+++ (1-10 μM/min/mg as +++),1 to 12,"[2H]C([2H])([2H])N1CC(c2ccc(NC(=O)c3c[nH]c(-c4c(-c5ccc(F)cc5)ncn4C(C)C)n3)c(F)c2)C1 [Compound 114, 2-[5-(4-fluorophenyl)-3-isopropyl-imidazol-4-yl]-N-[2-fluoro-4-[1-(trideuteriomethyl)azetidin-3-yl]phenyl]-1H-imidazole-4-carboxamide]"
++ (10-100 μM/min/mg as ++),1 to 12,"CC(C)n1cnc(-c2ccc(F)cc2)c1-c1nc(C(=O)Nc2ccc(N3CCP(C)(=O)CC3)cc2F)cs1 [Compound 117, N-(2-fluoro-4-(4-methyl-4-oxido-1,4-azaphosphinan-1-yl)phenyl)-2-(4-(4-fluorophenyl)-1-isopropyl-1H-imidazol-5-yl)thiazole-4-carboxamide]"
++ (10-100 μM/min/mg as ++),1 to 12,"[2H]C([2H])([2H])N1CC(c2ccc(NC(=O)c3nc(-c4c(-c5ccc(F)cc5)ncn4C4CCC4)cs3)c(F)c2)C1 [Compound 122, 4-[3-cyclobutyl-5-(4-fluorophenyl)imidazol-4-yl]-N-[2-fluoro-4-[1-(trideuteriomethyl)azetidin-3-yl]phenyl]thiazole-2-carboxamide]"
++ (10-100 μM/min/mg as ++),1 to 12,"[2H]C([2H])([2H])N1CC(c2ccc(NC(=O)c3csc(-c4c(-c5ccc(F)c(Cl)c5)ncn4C(C)C)n3)nc2)C1 [Compound 123, 2-[5-(3-chloro-4-fluoro-phenyl)-3-isopropyl-imidazol-4-yl]-N-[5-[1-(trideuteriomethyl)azetidin-3-yl]-2-pyridyl]thiazole-4-carboxamide]"
++ (10-100 μM/min/mg as ++),1 to 12,"[2H]C([2H])([2H])N1CCN(c2ccc(NC(=O)c3c[nH]c(-c4c(-c5ccc(F)cc5)ncn4C(C)C)n3)nc2)CC1 [Compound 124, 2-[5-(4-fluorophenyl)-3-isopropyl-imidazol-4-yl]-N-[5-[4 (trideuteriomethyl)piperazin-1-yl]-2-pyridyl]-1H-imidazole-4-carboxamide]"
++ (10-100 μM/min/mg as ++),1 to 12,"[2H]C([2H])([2H])N1CCN(c2ccc(NC(=O)c3c[nH]c(-c4c(-c5ccc(F)cc5)ncn4C([2H])(C)C)n3)nc2)CC1 [Compound 125, 2-[3-(1-deuterio-1-methyl-ethyl)-5-(4-fluorophenyl)imidazol-4-yl]-N-[5-[4-(trideuteriomethyl)piperazin-1-yl]-2-pyridyl]-1H-imidazole-4-carboxamide]"
++ (10-100 μM/min/mg as ++),1 to 12,"[2H]C([2H])([2H])N1CCN(c2ccc(NC(=O)c3c[nH]c(-c4c(-c5ccc(F)cc5)ncn4C(C)C)n3)c(F)c2)CC1 [Compound 126, 2-[5-(4-fluorophenyl)-3-isopropyl-imidazol-4-yl]-N-[2-fluoro-4-[4-(trideuteriomethyl)piperazin-1-yl]phenyl]-1H-imidazole-4-carboxamide]"
